In patent US8367716B2 (priority 2003, dated 2013):

Key:
[1] = type: physicochemical
Protocol: c-di-GMP, CGMP and 5′-GMP nucleotides used. c-di-GMP used in the studies in this example was biochemically synthesized in pure form using a recently described novel synthesis method that produces a pure and high yielding preparation of c-di-GMP diammonium salt (FIG. 5A) (Hayakawa et al., 2003). Before use, the purity and stability of lyophilized c-di-GMP was determined by first resuspending the molecule in 0.9% NaCl creating a 2 mM solution then confirmed by HPLC analysis and ESI-TOF MS spectrometry. The cGMP (guanosine 3′, 5′-cyclic monophosphate, Sigma #G7504) and 5′-GMP (guanosine 5′-monophosphate, TCI, Tokyo Kasei Kogyo Co.) nucleotides were also used. Unless otherwise stated, a 4 mM stock solution of each nucleotide in 0.9% NaCl was prepared and stored at 4° C. until needed.
c-di-GMP stability tests. Although the term c-di-GMP is used here, c-di-GMP diammonium salt (and not the free diphosphoric acid) was used for these stability tests. (i) In boiling water: A 2 mM solution of c-di-GMP in water was prepared by dissolving 2.42 mg (3.3 μmol) of c-di-GMP in 1.65 mL of ion-exchanged/ion-free water (prepared by passing distilled water through ion-exchange resins). This solution was heated at 100° C. for 10 min and then concentrated under reduced pressure. The resulting residual was subjected to the HPLC analysis under conditions shown below. (ii) In pH 3 solution: From the 2 mM c-di-GMP aqueous solution described above, 500 μl (containing […] of c-di-GMP) was dissolved in 20 mL of 1 mM HCl to produce a solution with pH 3 (confirmed by pH meter). The resulting solution was stirred at room temperature for 1 h and then neutralized by the addition of 200 mL of a 0.1 mM NaOH. Water was evaporated under reduced pressure and the resulting residue was subjected to HPLC analysis. (iii) In pH 10 solution: From the 2 mM c-di-GMP aqueous solution described above, 500 μl (containing […] of c-di-GMP) was dissolved in 200 mL of a 0.1 mM NaOH aqueous solution to produce a solution with pH 10 (confirmed by pH meter). The resulting solution was stirred at room temperature for 1 h. The reaction was quenched by addition of 20 mL of a 1 mM HCl. Concentration of the resulting neutral solution under reduced pressure gave a residual material that was subjected to the HPLC analysis. The HPLC analysis was performed on a Waters 2695 Separation Module with a Waters 2996 Photodiode Array Detector under the following conditions. Column: Nacalai Tesque COSMOSIL 5C18-AR-II column (4.6 mm (diameter)×250 mm (length)); detection: 254 nm of UV ray; temperature: 40° C.; eluent: A=0.9% NaCl (aq), B=a 20:80 mixture of water:acetonitrile; flow rate:1 mL/min; 0-10 min: A 100%; 10-60 min: linear gradient from A100%/B 0% to A 40% to B 60%.

S. aureus DK825 [2] = experiment: Effect on 24 h pre-formed biofilms; type: cell-based, Staphylococcus aureus; conditions: 200 μM added to 24 h pre-formed biofilm, further 24 h
Protocol: Effect of c-di-GMP on S. aureus pre-formed biofilms. S. aureus DK825 was subcultured from glycerol stocks onto blood agar plate and incubated at 37° C. statically. A single colony was inoculated into 5 ml TSB broth (containing 0.25% glucose) and incubated at 37° C. overnight with shaking at 250 rpm until the culture reached OD660˜3.0. Following incubation the culture was diluted to 1:250 with fresh TSB broth and a 200 μl of the diluted culture was transferred into each well of microtitre plate and the plate containing wells with S. aureus cultures was incubated statically at 37° C. for 24 h. After 24 h, an appropriate volume of c-di-GMP was added to give a final concentration of 200 μM and represented the “treated” sample. As an “untreated” control, an identical volume of 0.9% NaCl was added to independent wells. The plates were then incubated statically at 37° C. for an additional 24 h. Following incubation the culture was discarded and microtitre plate was washed twice with 1X PBS. An equal volume (260 μl) of 1X PBS was added to each well for washing. The plates were then kept for drying on paper towel ˜30 min. A 260 μl of 0.1% crystal violet was added to each well to stain the cells in the biofilm and the plates were incubated at room temperature for 30 min. […] To quantitatively assay the amount of biofilm, the OD570 was measured by a spectrophotometer (SpectraMAX 250, Molecular Devices). […]

[3] = tested on: S. aureus Newbould 305 strain; experiment: Mouse mastitis model of S. aureus infection; type: in vivo, Staphylococcus aureus
Protocol: A mouse mastitis model of S. aurreus infection using the S. aureus Newbould 305 strain (Brouillette et al., 2003, 2004a and 2004b) was used to show the effectiveness of treatment with c-di-GMP. Three mice per group and two glands per mouse were used for a total of six samples per treatment. 100 CFU (colony forming units) of S. aureus Newbould 305 strain were inoculated into each mammary gland. Five or 50 nanomoles of c-di-GMP was administered by injection twice into each mammary gland at 0 hr. (pre-mixed with the S. aureus inoculum in 100 μl volume, i.e., 50 or 500 μM concentration) and at 4 hr. post-infection (in 50 μl, i.e., 100 or 1000 μM). The mammary glands were harvested at 10 hrs. post-infection. Considering the volume of the mammary gland with milk to be about 250 μl, the final concentration of c-di-GMP in the mammary gland at each injection was estimated to be 20 μM or 200 μM.

S. aureus DK825 [4] = experiment: Coagulase production (bound or free); type: cell-based, Staphylococcus aureus
[5] = 0.2 N NaOH, ~pH 13.5, 37° C. for 24 h; Ross et al.; cited from earlier work

For Nc1nc2c(ncn2C2OC3COP(=O)(O)OC4C(COP(=O)(O)OC3C2O)OC(n2cnc3c(=O)[nH]c(N)nc32)C4O)c(=O)[nH]1 (stereo not drawn) [c-di-GMP, 3′,5′-cyclic diguanylic acid], the solubility [1] was “soluble”, the “stability in 100 mM ammonium acetate buffer” value [1] was “stable” and the “stability in 100 mM phosphate buffer” value [1] was “stable”. For the same molecule, the “stability in 0.9% NaCl solution (monomeric structure)” value [1] was “very stable”, the “stability in physiological saline” value [1] was “stable” and the “stability of 2 mM stock solution in water” value [1] was “formation of an aggregated product”. The “stability of neat (lyophilized) form on storage” value [1] was “formed aggregate molecules”, the “reduction of further biofilm development” value (S. aureus DK825 [2]) was ~75% and the “effect on CFU counts in the mammary gland” value ([3]; 5 or 50 nanomoles per injection) was “significant dose-dependent suppressing effect”. For the same molecule, the “inhibition of S. aureus infection of the mammary gland (CFU counts)” value ([3]; 50 nanomoles injected into mammary gland at 0 and 4 hr., harvest 10 hrs. post-infection) was “at least 10 fold”, the “coagulase production treated vs untreated” value (S. aureus DK825 [4]) was “no difference” and the “stability in relatively strong alkali (cellulose activating activity)” value [5] was “labile”.
